{"source": "patent EP0733369A1", "about": "“Protease inhibitors, a DNA construct for the expression of a protease and a process for measuring proteases and/or protease inhibitors” (Stichting REGA V.Z.W., priority 1995, dated 1996)", "key": {"[1]": {"molecular_target": "T1, Gelatinase B (Homo sapiens, UniProt P14780)", "assay": "ID50 on homogeneous enzyme", "type": "biochemical"}, "[2]": {"molecular_target": "T2, gelatinase B from neutrophils (Homo sapiens, UniProt P14780)", "T2 sequence (P14780 94-707)": "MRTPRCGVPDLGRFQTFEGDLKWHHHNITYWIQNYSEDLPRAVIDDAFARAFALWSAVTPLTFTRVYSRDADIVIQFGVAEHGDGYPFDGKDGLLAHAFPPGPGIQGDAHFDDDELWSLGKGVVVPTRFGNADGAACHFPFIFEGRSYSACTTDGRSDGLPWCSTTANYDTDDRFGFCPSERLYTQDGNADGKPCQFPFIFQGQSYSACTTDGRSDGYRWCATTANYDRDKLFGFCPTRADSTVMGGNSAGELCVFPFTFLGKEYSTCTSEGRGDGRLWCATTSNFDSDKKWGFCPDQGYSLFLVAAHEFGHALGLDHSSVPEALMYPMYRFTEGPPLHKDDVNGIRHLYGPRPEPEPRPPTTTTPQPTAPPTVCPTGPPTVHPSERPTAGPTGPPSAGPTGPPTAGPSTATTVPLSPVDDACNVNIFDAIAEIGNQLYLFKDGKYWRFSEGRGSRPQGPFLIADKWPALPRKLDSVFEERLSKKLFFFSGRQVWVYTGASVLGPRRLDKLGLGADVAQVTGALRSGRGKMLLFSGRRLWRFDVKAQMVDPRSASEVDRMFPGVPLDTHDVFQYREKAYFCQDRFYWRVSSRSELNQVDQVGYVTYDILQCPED", "assay": "gelatinase (inhibitor) microtiter plate assay with biotinylated gelatin", "type": "biochemical", "design": "endogenous in cells; host or cells: human neutrophils stimulated with lipopolysaccharide; conditioned medium", "details": "qualitative statements", "method": "The measurement of gelatinase activity was based on the detection of non-degraded biotinylated gelatin with a streptavidin-peroxidase conjugate. This test is based on the biotin-avidin method described by Sorbi et al. (25) but modified to a one plate assay (schematically represented in Fig. 1.). Gelatin (1mg/ml) was dissolved in 0.1 M sodium bicarbonate pH 8.3 by heating to 40°C. Biotin-N-hydroxysuccinimide ester was dissolved in dimethylsulfoxide (Me2SO) and was added to the gelatin in a 15-fold molar excess. The mixture was allowed to react overnight at 4°C and the biotinylated gelatin was then dialyzed against phosphate buffered saline (PBS). Neutrophil granulocyte (Neu) medium was collected from human neutrophils after stimulation with lipopolysaccharide (1µg/ml) overnight at 37°C in Minimal Essential Medium. Cells were removed by 10 min centrifugation at 1000 g. Purified gelatinase was obtained by one-step affinity chromatography of neutrophil medium on a gelatin-sepharose column as described (8).\nModified flat bottom 96-well ELISA plates were coated overnight with 0.5 µg/ml avidin in distilled water. The plates were then blocked with 0.3% bovine serum albumin (BSA, Sigma) in PBS for 1 hour at 37°C. Biotinylated gelatin was diluted to 50 µg/ml and 100µl was added to the avidin-coated wells. After incubation for one hour at 20°C, the plate was rinsed with PBS. Medium containing the secreted gelatinases from human neutrophils (dilution range 1/3-1/3^11) and the inhibitors were diluted in incubation buffer (50 mM Tris-HCl pH 7.5, 10 mM CaCl2, 0.02% (W/V) NaN3, 1% (V/V) Triton X-100) and 100 µl of each were mixed. 190 µl of the mixture was added to the gelatin-coated plates and allowed to digest the gelatin overnight at 37°C. The plates were then washed with PBS and each well was incubated with 100 µl peroxidase-conjugated-streptavidin at a 1:2000 dilution for 1 hour at 37°C. After rinsing the plate, the ABTS substrate was added (0.5 mg/ml solution containing 0.1 M citric acid, 0.2 M Na2HPO4, pH 4.3, 0.07 µl/ml 30% H2O2) and the optical density was read at 405 nm after 10 min. incubation at room temperature. Additional information on published test systems used here for comparison.\nGelatin is biotinylated and bound to avidin-coated microtiter plates. By addition of gelatinases the number of free biotin groups decreases and proportionally less streptavidin-peroxidase is bound to the residual substrate. Bound streptavidin-peroxidase activity is measured spectrophotometrically by reaction of peroxide with ABTS. Inhibition of gelatinase is obtained by the addition of inhibitor to a known amount of gelatinase prior to application to the plates. The peroxidase activity increases proportionally with the inhibitory activity.\nPlates were first coated with 10µg/ml avidin and 50µg/ml biotinylated gelatin (theoretically saturating the avidin binding sites). As the sensitivity of the assay is dependent on the detection of the minimal amount of degraded biotinylated gelatin, we investigated wether decreasing the amount of biotin-gelatin (50 µg/ml-23 ng/ml) bound to the avidin-coated (10µg/ml) plate increased the sensitivity of the assay. […] Thus it was verified whether a decrease in the avidin coating could make the assay more sensitive (Fig. 2). […] In all further examples plates were coated with 0.5 µg/ml avidin and 50 µg/ml gelatin-biotin.\nThe titration curves of gelatinase inhibition were always related to a blanc curve and this for enzyme concentrations within the slope of the curve (vertical dotted lines Fig. 3). The decrease in enzyme activity to which the inhibitor-incubated sample corresponded was defined as the inhibition factor (IF)."}, "[3]": {"test_system": "chronic relapsing EAE", "assay": "chronic relapsing EAE in Biozzi AB/H mice", "type": "in vivo", "details": "750 µg three times weekly from day 22 onwards"}, "[4]": {"molecular_target": "T3, Gelatinase A (Homo sapiens, UniProt P08253)", "T3 construct": "from tissue; host or cells: cerebrospinal fluid of patients with multiple sclerosis or optic neuritis", "T3 sequence (P08253 110-660)": "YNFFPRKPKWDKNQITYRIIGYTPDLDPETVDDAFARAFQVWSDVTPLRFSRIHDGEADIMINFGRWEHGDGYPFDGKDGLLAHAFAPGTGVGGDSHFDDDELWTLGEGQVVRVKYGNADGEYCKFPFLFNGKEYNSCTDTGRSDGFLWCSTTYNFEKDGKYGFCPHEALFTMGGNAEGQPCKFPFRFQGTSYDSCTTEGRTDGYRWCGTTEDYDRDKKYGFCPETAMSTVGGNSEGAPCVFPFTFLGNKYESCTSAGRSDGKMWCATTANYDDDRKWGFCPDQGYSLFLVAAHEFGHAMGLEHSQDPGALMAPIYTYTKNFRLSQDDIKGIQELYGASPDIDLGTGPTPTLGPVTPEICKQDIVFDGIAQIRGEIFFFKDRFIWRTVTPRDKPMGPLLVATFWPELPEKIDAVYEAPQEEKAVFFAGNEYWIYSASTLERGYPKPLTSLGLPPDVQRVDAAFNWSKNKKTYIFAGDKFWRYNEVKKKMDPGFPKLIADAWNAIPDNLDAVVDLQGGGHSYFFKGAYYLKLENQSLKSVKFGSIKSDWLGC", "assay": "zymography of cerebrospinal fluid of MS / optic neuritis patients with inhibitor", "type": "biochemical", "details": "CSF of MS patients, increasing concentrations", "method": "(§1) Quantitative zymography was performed as described (7,8). Briefly, 40 µl of loading buffer was added to 40 µl of each sample and applied on 7.5% polyacrylamide gels which had been co-polymerised with 0.1% (w/v) gelatin. Stacking gels contained 5% polyacrylamide. The gels were run at 4°C for 16h at 90V. The gels were then incubated in washing buffer (50 mM Tris-HCl pH 7.5, 10mM CaCl2, O.O2% (W/V) NaN3, 2.5% (v/v) Triton X-100) at room temperature, 2x20 min to remove sodium dodecyl sulfate and overnight in developing buffer (50 mM Tris-HCl pH 7.5, 10mM CaCl2, O.O2% (w/v) NaN3, 1% (v/v) Triton X-100) at 37°C. […] The sites of gelatinase activity appeared as unstained bands on a blue background and were quantified by computerised image analysis through scanning densitometry with a PDI scanner (Pharmacia, Belgium) and the PDI software package. […]\n(§2) Similar results were obtained when pure preparations of gelatinase B were tested or when gelatinase B was measured in the presence of D-penicillamine in body fluids or cell supernatants.\n(§3) Figure 13. […] Gelatinase A (---) and B(_) activities in the CSF were measured by zymography in the absence or the presence of increasing concentrations of D-penicillamine. The scanning indices for each patient are calculated at the residual activity in the presence of inhibitor versus the activity without inhibitor. […]"}, "[5]": {"test_system": "human monocytic cell line THP-1", "assay": "gelatinase B protein (zymography) and mRNA (northern blot) production in THP-1 cultures", "type": "cell-based", "details": "THP-1, LPS 1µg/ml, RA 100nM or untreated; D-penicillamine 50 µg/ml; 16 h", "method": "Figure 14. […] Cultures of the human monocytic cell line THP-1 were stimulated with lipopolysaccharide (LPS, 1µg/ml), retinoic acid (RA, 100nM) or left untreated (CO) in the presence or absence of D-penicillamine (DPEN, 50 µg/ml). After 16 h total RNA was extracted and gelatinase B mRNA was measured by northern blot analysis with a human probe (41) (a). Gelatinase B protein in the cell culture fluids was assayed by zymographic analysis on gelatin substrate gels (b)."}, "[6]": {"test_system": "hyperacute experimental allergic encephalomyelitis (EAE)", "assay": "acute (hyperacute) EAE in SJL mice", "details": "intraperitoneal, equivalent of 27 to 375 µg per mouse daily", "protocol": "In both hind paws 50µl of this emulsion was injected on day 0. On day 0 and 2, 50µl B.pertussis (200x10^9 bacteria/ml) were injected intraveneously. […] The control group received injections with 0.9% NaCl, used as excipiens. The animals were daily monitored and the disease and mortality were scored.)."}, "[7]": {"molecular_target": "T1, Gelatinase B", "assay": "zymography of cerebrospinal fluid of MS / optic neuritis patients with inhibitor", "type": "biochemical", "design": "from tissue; host or cells: cerebrospinal fluid of patients with multiple sclerosis or optic neuritis", "details": "CSF of MS patients, increasing concentrations", "method": "as §1, §2, §3"}, "[8]": {"molecular_target": "u-PA (Homo sapiens, UniProt P00749)", "assay": "ID50 on homogeneous enzyme", "type": "biochemical"}, "[9]": {"molecular_target": "t-PA (Homo sapiens, UniProt P00750)", "sequence (P00750 36-562, species assumed)": "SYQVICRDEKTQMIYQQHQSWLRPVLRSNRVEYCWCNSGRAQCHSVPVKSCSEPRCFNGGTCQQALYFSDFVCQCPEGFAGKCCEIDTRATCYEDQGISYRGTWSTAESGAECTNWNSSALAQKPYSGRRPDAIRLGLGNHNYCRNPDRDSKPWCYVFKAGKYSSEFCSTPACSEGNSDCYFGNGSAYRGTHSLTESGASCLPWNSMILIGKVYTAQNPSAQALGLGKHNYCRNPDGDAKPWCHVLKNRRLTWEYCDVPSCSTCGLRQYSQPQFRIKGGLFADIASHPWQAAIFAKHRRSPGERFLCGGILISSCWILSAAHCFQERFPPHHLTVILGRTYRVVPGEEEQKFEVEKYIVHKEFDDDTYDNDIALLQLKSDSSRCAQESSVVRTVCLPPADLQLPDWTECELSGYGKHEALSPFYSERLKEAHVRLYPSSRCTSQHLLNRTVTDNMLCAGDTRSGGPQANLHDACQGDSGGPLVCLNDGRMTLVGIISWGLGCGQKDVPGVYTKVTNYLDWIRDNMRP", "assay": "ID50 on homogeneous enzyme", "type": "biochemical"}, "[10]": {"molecular_target": "T2, gelatinase B from neutrophils", "assay": "zymography inhibition assay, inhibitor in developing buffer", "type": "biochemical", "design": "The 92 kDa neutrophil gelatinase is indicated with an arrowhead; endogenous in cells; host or cells: human neutrophils; purified from conditioned medium on gelatin-Sepharose", "details": "qualitative statements", "protocol": "Quantitative zymography was performed as described (7,8). Briefly, 40 µl of loading buffer was added to 40 µl of each sample and applied on 7.5% polyacrylamide gels which had been co-polymerised with 0.1% (w/v) gelatin. Stacking gels contained 5% polyacrylamide. The gels were run at 4°C for 16h at 90V. The gels were then incubated in washing buffer (50 mM Tris-HCl pH 7.5, 10mM CaCl2, O.O2% (W/V) NaN3, 2.5% (v/v) Triton X-100) at room temperature, 2x20 min to remove sodium dodecyl sulfate and overnight in developing buffer (50 mM Tris-HCl pH 7.5, 10mM CaCl2, O.O2% (w/v) NaN3, 1% (v/v) Triton X-100) at 37°C. The gels were then stained in Coomassie brilliant blue R-250 and destained in methanol/acetic acid. The sites of gelatinase activity appeared as unstained bands on a blue background and were quantified by computerised image analysis through scanning densitometry with a PDI scanner (Pharmacia, Belgium) and the PDI software package. For inhibition experiments, the inhibitors were dissolved in the developing buffer at the appropriate concentration. […] The enzyme activity was developed by staining of the substrate with Coomassie blue and quantification of the substrate digestion by scanning densitometry. […] The enzyme activity was developed by staining of the substrate with Coomassie blue and quantification of the substrate digestion by scanning densitometry. […]"}}, "note": "Entries after “also recorded” stand apart in the source; their conditions may differ.", "data": [{"molecule": "CC(C)(S)[C@@H](N)C(=O)O", "note": "[D-penicillamine]", "values": [{"measurement": "IC50", "setting": "[1]", "value": 20.1, "unit": "µM"}, {"measurement": "gelatinase B inhibitory activity in the plate assay (in words)", "setting": "[2]", "value": "inhibitor of gelatinase B"}, {"measurement": "disease recurrencies in chronic relapsing EAE", "setting": "[3]", "value": "abrogated the exacerbations; also recorded: abrogated the disease recurrencies"}, {"measurement": "inhibition of Gelatinase A in cerebrospinal fluid (in words)", "setting": "[4]", "value": "inhibited in a dose-dependent way"}, {"measurement": "spontaneous and induced levels of gelatinase B mRNA", "setting": "[5]", "value": "remained constant"}, {"measurement": "spontaneous and induced levels of gelatinase B protein", "setting": "[5]", "value": "remained constant"}, {"measurement": "development of disease symptoms in acute EAE", "setting": "[6]", "value": "complete blockage; also recorded: inhibits in a dose-dependent way the development of disease symptoms"}, {"measurement": "inhibition of Gelatinase B in cerebrospinal fluid (in words)", "setting": "[7]", "value": "inhibited in a dose-dependent way"}, {"measurement": "IC50", "setting": "[8]", "value": 93.8, "unit": "µM"}, {"measurement": "IC50", "setting": "[9]", "value": 121, "unit": "µM"}, {"measurement": "inhibition of gelatinase B on zymography (in words)", "setting": "[10]", "value": "inhibitor of gelatinase B"}]}]}
